Source: PubChem BioAssay AID256 (DTP/NCI, 2004)
“And” between values parts separate entries of the source, which are not always exact repeats. Equal values may be shown once. Toxic doses and inconclusive results are not listed. How the source made its calls: active means survival T/C of 150% or more; inactive means T/C below 125% in these data.

Tested on: CD2F1 mice, L1210 leukemia ip, survival T/C
Assay: NCI In Vivo Anticancer Drug Screen. Data for tumor model L1210 Leukemia (intraperitoneal) in CD2F1 (CDF1) mice
Conditions: higher = longer survival
In short: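 Each value reflects a quotient of treated over vehicle control outcomes in mice with a transplanted tumor.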

[1] = endpoint: mean survival time, dose: 100.0 mg/kg/injection, schedule: Q04DX003 (ip), vehicle: saline with Tween-80
[2] = endpoint: mean survival time, dose: 200.0 mg/kg/injection, schedule: Q04DX003 (ip), vehicle: saline with Tween-80
[3] = endpoint: mean survival time, dose: 400.0 mg/kg/injection, schedule: Q04DX003 (ip), vehicle: saline with Tween-80
[4] = endpoint: mean survival time, dose: 25.0 mg/kg/injection, schedule: Q04DX003 (ip), vehicle: saline with Tween-80
[5] = endpoint: mean survival time, dose: 50.0 mg/kg/injection, schedule: Q04DX003 (ip), vehicle: saline with Tween-80
[6] = endpoint: mean survival time, dose: 100.0 mg/kg/injection, schedule: Q01DX001 (ip), vehicle: saline with Tween-80
[7] = endpoint: mean survival time, dose: 100.0 mg/kg/injection, schedule: Q01DX009 (ip), vehicle: saline with Tween-80
[8] = endpoint: mean survival time, dose: 100.0 mg/kg/injection, schedule: Q04DX002 (ip), vehicle: saline with Tween-80
[9] = endpoint: mean survival time, dose: 200.0 mg/kg/injection, schedule: Q01DX001 (ip), vehicle: saline with Tween-80
[10] = endpoint: mean survival time, dose: 200.0 mg/kg/injection, schedule: Q01DX009 (ip), vehicle: saline with Tween-80
[11] = endpoint: mean survival time, dose: 200.0 mg/kg/injection, schedule: Q04DX002 (ip), vehicle: saline with Tween-80
[12] = endpoint: mean survival time, dose: 400.0 mg/kg/injection, schedule: Q01DX001 (ip), vehicle: saline with Tween-80
[13] = endpoint: mean survival time, dose: 400.0 mg/kg/injection, schedule: Q01DX009 (ip), vehicle: saline with Tween-80
[14] = endpoint: mean survival time, dose: 100.0 mg/kg/injection, schedule: Q04DX003 (ip), vehicle: saline
[15] = endpoint: mean survival time, dose: 200.0 mg/kg/injection, schedule: Q04DX003 (ip), vehicle: saline
[16] = endpoint: mean survival time, dose: 400.0 mg/kg/injection, schedule: Q04DX003 (ip), vehicle: saline
[17] = endpoint: mean survival time, dose: 12.5 mg/kg/injection, schedule: Q01DX001 (ip), vehicle: saline with Tween-80
[18] = endpoint: mean survival time, dose: 25.0 mg/kg/injection, schedule: Q01DX001 (ip), vehicle: saline with Tween-80

Measured: T/C

CC[C@]12CN3CCc4c([nH]c5ccccc45)[C@@](C(=O)OC)(c4cc5c(cc4OC)N(C)[C@H]4[C@@](O)(C(=O)OC)[C@H](OC(C)=O)[C@]6(CC)C=CCN7CC[C@]54[C@@H]76)CC(C3)[C@H]1O2 (stereo partly drawn)
inactive: endpoint: mean survival time, dose: 1.5 mg/kg/injection, schedule: Q01DX009 (ip), vehicle: Klucel (hydroxypropylcellulose) (HPC) 106 % of control | endpoint: mean survival time, dose: 3.0 mg/kg/injection, schedule: Q01DX009 (ip), vehicle: Klucel (hydroxypropylcellulose) (HPC) 108 % of control | endpoint: mean survival time, dose: 6.0 mg/kg/injection, schedule: Q01DX009 (ip), vehicle: Klucel (hydroxypropylcellulose) (HPC) 110 % of control | endpoint: mean survival time, dose: 6.25 mg/kg/injection, schedule: Q04DX003 (ip), vehicle: saline 111 % of control | endpoint: mean survival time, dose: 12.0 mg/kg/injection, schedule: Q01DX009 (ip), vehicle: Klucel (hydroxypropylcellulose) (HPC) 112 % of control | endpoint: mean survival time, dose: 12.5 mg/kg/injection, schedule: Q04DX003 (ip), vehicle: saline 120 % of control | endpoint: median survival time, dose: 1.0 mg/kg/injection, schedule: Q03HX008 (ip), vehicle: saline 100 % of control | endpoint: median survival time, dose: 1.0 mg/kg/injection, schedule: Q03HX016 (ip), vehicle: saline 100 % of control | endpoint: median survival time, dose: 1.0 mg/kg/injection, schedule: Q03HX024 (ip), vehicle: saline 100 % of control | endpoint: median survival time, dose: 2.0 mg/kg/injection, schedule: Q03HX008 (ip), vehicle: saline 110 % of control | endpoint: median survival time, dose: 2.0 mg/kg/injection, schedule: Q03HX016 (ip), vehicle: saline 120 % of control | endpoint: median survival time, dose: 2.0 mg/kg/injection, schedule: Q03HX024 (ip), vehicle: saline 120 % of control | endpoint: median survival time, dose: 4.0 mg/kg/injection, schedule: Q01DX009 (ip), vehicle: saline 110 % of control | endpoint: median survival time, dose: 4.0 mg/kg/injection, schedule: Q04DX003 (ip), vehicle: saline 100 % of control | endpoint: median survival time, dose: 8.0 mg/kg/injection, schedule: Q01DX001 (ip), vehicle: saline 100 % of control | endpoint: median survival time, dose: 8.0 mg/kg/injection, schedule: Q04DX003 (ip), vehicle: saline 105 % of control | endpoint: median survival time, dose: 8.0 mg/kg/injection, schedule: Q08DX002 (ip), vehicle: saline 115 % of control | endpoint: median survival time, dose: 16.0 mg/kg/injection, schedule: Q01DX001 (ip), vehicle: saline 110 % of control | endpoint: median survival time, dose: 16.0 mg/kg/injection, schedule: Q01DX009 (ip), vehicle: saline 100 % of control | endpoint: median survival time, dose: 16.0 mg/kg/injection, schedule: Q08DX002 (ip), vehicle: saline 110 % of control | endpoint: median survival time, dose: 32.0 mg/kg/injection, schedule: Q01DX001 (ip), vehicle: saline 110 % of control

COC(/C=C\C(OC)OC)OC
inactive: endpoint: mean survival time, dose: 12.5 mg/kg/injection, schedule: Q01DX009 (ip), vehicle: saline 101 % of control | endpoint: mean survival time, dose: 25.0 mg/kg/injection, schedule: Q01DX009 (ip), vehicle: saline 96 % of control

O=[N+]([O-])/C=C\c1ccccc1
inactive: [1] 96 % of control | [2] 90 % of control | [3] 86 % of control

O=C(COc1ccccc1)NC(=S)Nc1nccs1
inactive: [4] 87 % of control | [5] 88 % of control and 103 % of control | [6] 97 % of control | [7] 93 % of control and 102 % of control | [8] 98 % of control | [1] 88 % of control and 97 % of control | [9] 95 % of control | [10] 93 % of control and 104 % of control | [11] 102 % of control | [2] 101 % of control and 108 % of control | [12] 107 % of control | [13] 111 % of control

CN(C)c1ccc(Cc2ccc(N(C)C)cc2)cc1
inactive: [1] 96 % of control | [2] 100 % of control | [3] 93 % of control

O=c1cc(NCCCCOc2ccccc2)[nH]c(=O)[nH]1
inactive: [6] 96 % of control | [9] 93 % of control | [12] 96 % of control

COc1cc(C2C3CN(C4CCCCC4)C(=O)C3NN2C(C)=O)ccc1OC(C)=O (stereo not drawn)
inactive: [7] 93 % of control | [10] 95 % of control | [13] 95 % of control

CC/C(=C/c1ccc(OC)cc1)[N+](=O)[O-]
inactive: endpoint: mean survival time, dose: 12.5 mg/kg/injection, schedule: Q01DX009 (ip), vehicle: Klucel (hydroxypropylcellulose) (HPC) 113 % of control | endpoint: mean survival time, dose: 25.0 mg/kg/injection, schedule: Q01DX009 (ip), vehicle: Klucel (hydroxypropylcellulose) (HPC) 102 % of control | endpoint: mean survival time, dose: 50.0 mg/kg/injection, schedule: Q01DX009 (ip), vehicle: Klucel (hydroxypropylcellulose) (HPC) 94 % of control

CCCOC(=O)COc1ccc(F)cc1
inactive: [8] 97 % of control | [11] 101 % of control | endpoint: mean survival time, dose: 400.0 mg/kg/injection, schedule: Q04DX002 (ip), vehicle: saline with Tween-80 97 % of control

CCCCCCCCCCCCCCCCCCC(C)C1CCCCC1 (stereo not drawn)
inactive: [6] 104 % of control | [9] 107 % of control | [12] 101 % of control

Cc1cc(Cc2ccccc2)c(O)c(Cc2ccccc2)c1
inactive: endpoint: mean survival time, dose: 100.0 mg/kg/injection, schedule: Q04DX003 (ip), vehicle: other 96 % of control | endpoint: mean survival time, dose: 200.0 mg/kg/injection, schedule: Q04DX003 (ip), vehicle: other 102 % of control | endpoint: mean survival time, dose: 400.0 mg/kg/injection, schedule: Q04DX003 (ip), vehicle: other 94 % of control

CS/C([S-])=N/[NH-].CS/C([S-])=N/[NH-].[Pd]
inactive: [6] 107 % of control | [9] 103 % of control

O=[N+]([O-])c1ccc(N/N=C(\CO)c2ccccc2)c([N+](=O)[O-])c1
inactive: [14] 109 % of control | [15] 97 % of control | [16] 108 % of control

CC1(C)CC(=O)C=C(NCc2ccccc2)C1
inactive: [1] 93 % of control | [2] 91 % of control

CC(=O)Nc1ccc(S(=O)(=O)CO)cc1
inactive: endpoint: mean survival time, dose: 12.5 mg/kg/injection, schedule: Q01DX009 (ip), vehicle: saline with Tween-80 97 % of control | endpoint: mean survival time, dose: 25.0 mg/kg/injection, schedule: Q01DX009 (ip), vehicle: saline with Tween-80 92 % of control and 97 % of control | endpoint: mean survival time, dose: 50.0 mg/kg/injection, schedule: Q01DX009 (ip), vehicle: saline with Tween-80 102 % of control and 108 % of control | [7] 101 % of control and 108 % of control | [10] 101 % of control and 103 % of control | [13] 101 % of control and 109 % of control

CC12OC3(C)C4C(=O)OC1C1(C)OC4(C)C3C(=O)OC21
inactive: endpoint: mean survival time, dose: 100.0 mg/kg/injection, schedule: Q01DX001 (ip), vehicle: saline 106 % of control | [14] 100 % of control | endpoint: mean survival time, dose: 200.0 mg/kg/injection, schedule: Q01DX001 (ip), vehicle: saline 102 % of control | [15] 102 % of control | endpoint: mean survival time, dose: 400.0 mg/kg/injection, schedule: Q01DX001 (ip), vehicle: saline 100 % of control | [16] 97 % of control

Nc1nc(N)c2nc(COc3ccc(C(=O)NC(CCC(=O)O)C(=O)O)cc3)ccc2n1 (stereo not drawn)
inactive: endpoint: mean survival time, dose: 15.63 micrograms/kg/injection, schedule: Q01DX005 (ip), vehicle: sodium bicarbonate 103 % of control and 106 % of control | endpoint: mean survival time, dose: 31.25 micrograms/kg/injection, schedule: Q01DX005 (ip), vehicle: sodium bicarbonate 120 % of control and 107 % of control | endpoint: mean survival time, dose: 62.5 micrograms/kg/injection, schedule: Q01DX005 (ip), vehicle: sodium bicarbonate 113 % of control

CC1(C)N=C(N)N=C(N)N1c1ccc(OCCCNC(=O)Nc2cccc(S(=O)(=O)F)c2)c(Cl)c1
inactive: endpoint: mean survival time, dose: 100.0 mg/kg/injection, schedule: Q01DX009 (ip), vehicle: saline 116 % of control | endpoint: mean survival time, dose: 200.0 mg/kg/injection, schedule: Q01DX009 (ip), vehicle: saline 92 % of control

CNC1C(CO)OC(n2cnc3c(N)ncnc32)C1O (stereo not drawn)
inactive: endpoint: mean survival time, dose: 75.0 mg/kg/injection, schedule: Q01DX001 (ip), vehicle: saline 106 % of control | endpoint: mean survival time, dose: 150.0 mg/kg/injection, schedule: Q01DX001 (ip), vehicle: saline 103 % of control | endpoint: mean survival time, dose: 300.0 mg/kg/injection, schedule: Q01DX001 (ip), vehicle: saline 109 % of control

NC(N)=N/N=C/c1ccc(-c2ccccc2)cc1
inactive: endpoint: mean survival time, dose: 6.25 mg/kg/injection, schedule: Q01DX001 (ip), vehicle: saline with Tween-80 95 % of control | [17] 109 % of control | [18] 100 % of control

CN(C)Cc1cc(C(C)(C)C)c(O)c(C(C)(C)C)c1
inactive: [4] 112 % of control | [5] 108 % of control | [1] 100 % of control

N#CCS(=O)(=O)c1ccccc1
inactive: [17] 95 % of control | [18] 98 % of control | endpoint: mean survival time, dose: 50.0 mg/kg/injection, schedule: Q01DX001 (ip), vehicle: saline with Tween-80 96 % of control and 98 % of control

CCc1cc[c]([Sb](=[O])([OH])[OH])cc1
inactive: endpoint: mean survival time, dose: 50.0 mg/kg/injection, schedule: Q04DX003 (ip), vehicle: saline 89 % of control | [14] 101 % of control | [15] 101 % of control
